Results on eleven compounds are retold here after patent US10703800B2, “Cell culture medium” (La Jolla Biologics, Inc., priority 2016, dated 2020).

The subject of one test is cell line producing mAb4. Nature of the test: Media supplementation with fatty acids, methyl esters, sterols, glycerides and isoprenoids, mAb4 production. It is filed as cell-based. The following applies: supplement in ethanol fed daily per Table 5 (5.0-20.0 μM, ethanol 0.09% v/v) vs control. How it is done: (§1) Monoclonal antibodies 1 (mAb1) and 4 (mAb4) were produced using two separate cell lines according to methods described in the previous Examples. Titer, percent of high molecular weight and low molecular weight species, acidic and basic charge variants, and glycosylation species profiles were assessed as in the previous Examples.
(§2) Fatty acids were dissolved in ethanol and fed daily according to Table 5 using two different process strategies for mAb1 and mAb4. The mAb1 process strategy was maintained at 37° C. then shifted to 31° C. during late exponential phase, with the pH being maintained at 7.0±0.2 throughout the culture. The mAb4 process strategy was maintained at 36.5° C. then shifted to 33° C. during production phase, with the pH being shifted from 7.0±0.1 to 6.8±0.1 in the late exponential phase. Both process strategies were maintained at 30% air saturation

The test system of test [1] is CHO.DXB11 cells. Description: Media supplementation with fatty acids, methyl esters, sterols, glycerides and isoprenoids, mAb1 production. It is filed as cell-based, Chinese hamster. The conditions noted are these: supplement in ethanol fed daily per Table 5 (2.7-10.7 μM, ethanol 0.05% v/v) vs control. How it is done:
as §1, §2

Test [2] concerns CHO.DXB11 cells. Description: Oleic acid in bench-scale bioreactors, baseline with ethanol, mAb 1. Format: cell-based, Chinese hamster. The following applies: oleic acid 40 μM fed daily vs baseline w/ethanol, 14 day fed-batch. An excerpt:
Ethanol supplemented media was further supplemented with fatty acids to determine if fatty acids altered mAb properties. Feed media was fed daily in a fed-batch process using bench-scale (2 L working volume) bioreactors. […] Media used for baseline measurements contains ethanol but no fatty acids.

Test [3] deals with CHO.DXB11 cells. Nature of the test: Oleic acid in bench-scale bioreactors, baseline without fatty acids or ethanol, mAb 1. The following applies: oleic acid 40 μM + ethanol 0.057% v/v fed daily vs baseline without both, 14 day fed-batch. Format: cell-based, Chinese hamster. From the text: Feed media was supplemented with fatty acids to determine if fatty acids altered mAb properties. Feed media was fed daily in a fed-batch process using bench-scale (2 L working volume) bioreactors.

Another test has as its system CHO.DXB11 derived clone. Description: Sodium chloride supplementation, microscale bioreactors, mAb3. Format: cell-based, Chinese hamster. The following applies: sodium chloride 4.59 mM and 9.18 mM fed daily, 12 day fed-batch. How it is done:
Monoclonal antibody 3 (mAb3) is a monoclonal antibody produced using recombinant DNA technology. The expression vector is fully synthetic with both heavy- and light-chain gene sequences regulated by strong constitutive promoters. Gene sequences were confirmed by DNA sequencing. The expression vector was linearized by restriction enzymes and stably transfected into CHO.DXB11 cells by electroporation. Gene amplification steps were performed with increasing concentrations of methotrexate. Single cell cloning was performed after gene amplification. Select single cell clones were expanded and cryopreserved. The cell line used was a CHO.DXB11 derived clone.
Sodium chloride was fed daily at 4.59 mM and 9.18 mM using two different process strategies. Process strategy 1 was maintained at 36.5° C. then shifted to 31° C. during production phase. Process strategy 2 was maintained at 36.5° C. then shifted to 31° C. during production phase then re-shifted back to 36.5° C. during late production phase. Both process strategies were maintained at 30% air saturation and a pH of 7.0±0.2. Other glycan species and HMW % and LMW % are not listed because no significant change in levels were observed from sodium chloride supplementation.

Setting [4] is: process strategies 1 and 2, mAb3.

Regarding `CCCCCCCC(=O)OCC(O)CO` (racemic) [1-octanoyl-rac-glycerol], in the test with cell line producing mAb4, the “Effect on acidic charge variants” value is given as “decreased”, the “Effect on relative percentage of G0F glycan species” value is “decreased”, the “Effect on relative percentage of G0 glycan species” value was “decreased” and the “Effect on relative percentage of HMW species” value is listed as “decreased”. In addition, in the test with cell line producing mAb4, the “Effect on relative percentage of Man5 glycan species” value is recorded as “decreased” and the “Effect on relative percentage of basic charge variants” value was “decreased”. Also, in the test on CHO.DXB11 cells [1], the “Effect on G0F glycan species” value is recorded as “decreased”, the “Effect on acidic charge variants” value is “decreased”, the “Effect on low molecular weight species” value is “decreased” and the Effect on titer result was “increased”.

`CC(C)CCC[C@@H](C)[C@H]1CC[C@H]2[C@@H]3CC=C4C[C@@H](O)CC[C@]4(C)[C@H]3CC[C@]12C` [cholesterol]: in the test with cell line producing mAb4, the “Effect on relative percentage of G0 glycan species” value is recorded as “decreased”, the “Effect on relative percentage of Man5 glycan species” value is “decreased” and the “Effect on relative percentage of basic charge variants” value is “decreased”. Moreover, in the test with CHO.DXB11 cells [1], the “Effect on G0 glycan species” value is recorded as “Decreased” and the “Effect on basic charge variants” value is on record as “decreased”.

Regarding `CCCCC/C=C\C/C=C\CCCCCCCC(=O)O` [linoleic acid], in the test on cell line producing mAb4, the “Effect on LMW species” value was “decreased”, the “Effect on acidic charge variants” value is “decreased”, the “Effect on relative percentage of G0 glycan species” value is on record as “decreased” and the “Effect on relative percentage of Man5 glycan species” value is on record as “decreased”. Further, in the test with CHO.DXB11 cells [1], the “Effect on acidic charge variants” value is given as “decreased”, the “Effect on low molecular weight species” value is listed as “decreased” and the Effect on titer entry is on record as “increased”.

Take `CCCCCCCC(=O)OC` [methyl octanoate]: in the test with cell line producing mAb4, the “Effect on relative percentage of G0 glycan species” value is “decreased”, the “Effect on relative percentage of HMW species” value is listed as “decreased”, the “Effect on relative percentage of Man5 glycan species” value is given as “decreased” and the “Effect on relative percentage of basic charge variants” value is “decreased”. Further, in the test with CHO.DXB11 cells [1], the “Effect on G0F glycan species” value is given as “decreased”, the “Effect on G0 glycan species” value is reported as “Decreased” and the “Effect on acidic charge variants” value was “decreased”.

With `CCCCCCCCCCCCCC(=O)O` [myristic acid], in the test on cell line producing mAb4, the “Effect on acidic charge variants” value is recorded as “decreased”, the “Effect on relative percentage of G0 glycan species” value was “decreased”, the “Effect on relative percentage of HMW species” value is reported as “decreased” and the “Effect on relative percentage of Man5 glycan species” value is given as “decreased”. In addition, the “Effect on relative percentage of basic charge variants” value in the test with cell line producing mAb4 was “decreased”. For the same compound, in the test with CHO.DXB11 cells [1], the “Effect on G0F glycan species” value is recorded as “decreased”, the “Effect on G0 glycan species” value is listed as “Decreased” and the “Effect on acidic charge variants” value is reported as “decreased”.

Turning to `CCCCCCCC/C=C\CCCCCCCC(=O)O` [oleic acid], in the test with cell line producing mAb4, the “Effect on acidic charge variants” value is recorded as “decreased”, the “Effect on relative percentage of G0 glycan species” value was “decreased” and the “Effect on relative percentage of Man5 glycan species” value is given as “decreased”. Further, in the test on CHO.DXB11 cells [1], the “Effect on G0F glycan species” value is given as “decreased”, the “Effect on G0 glycan species” value is listed as “Decreased” and the “Effect on acidic charge variants” value is listed as “decreased”. For the same compound, in the test with CHO.DXB11 cells [2], the “Effect on G0F glycan species” value was “increased”, the “Effect on G0 glycan species” value was “decreased”, the “Effect on G1F glycan species” value is given as “decreased” and the “Effect on G2F glycan species” value is on record as “decreased”. In the test on CHO.DXB11 cells [2], the “Effect on Man5 glycan species” value is “decreased”, the “Effect on acidic charge variants” value is given as “decreased”, the “Effect on antibody titer” value is reported as “decreased” and the “Effect on basic charge variants” value is “increased”. Also, in the test on CHO.DXB11 cells [2], the “Effect on high molecular weight species” value was “increased” and the “Effect on low molecular weight species” value was “increased”. Also, in the test with CHO.DXB11 cells [3], the “Effect on G0F glycan species” value is on record as “decreased”, the “Effect on G0 glycan species” value is “decreased”, the “Effect on G1F glycan species” value is “increased” and the “Effect on G2F glycan species” value is “increased”. In the test on CHO.DXB11 cells [3], the “Effect on Man5 glycan species” value is listed as “decreased”, the “Effect on acidic charge variants” value is on record as “decreased”, the “Effect on high molecular weight species” value is reported as “decreased” and the “Effect on monoclonal antibody titer” value is “increased”.

Consider `CCCCCCCCCCCCCCCC(=O)O` [palmitic acid], for which, in the test on cell line producing mAb4, the “Effect on LMW species” value is reported as “decreased” and the “Effect on acidic charge variants” value is reported as “decreased”. Also, in the test with CHO.DXB11 cells [1], the “Effect on G0 glycan species” value was “Decreased”, the “Effect on acidic charge variants” value is given as “decreased”, the “Effect on basic charge variants” value is recorded as “decreased” and the “Effect on low molecular weight species” value was “decreased”.

For `[Cl-].[Na+]` [sodium chloride], in the test on CHO.DXB11 derived clone (mAb3), the “Effect on HMW %” value is reported as “did not change” and the “Effect on LMW %” value is “did not change”. Moreover, in the test on CHO.DXB11 derived clone (setting [4]), the “Effect on G0F glycan species” value was “decreased”, the “Effect on G0 glycan species” value is reported as “increased”, the “Effect on G1F glycan species” value is listed as “increased” and the “Effect on G2F glycan species” value is “increased”. Further, in the test with CHO.DXB11 derived clone (setting [4]), the “Effect on Man5 glycan species” value is given as “increased”, the “Effect on acidic charge variants” value is listed as “increased”, the “Effect on basic charge variants” value was “increased” and the “Effect on monoclonal antibody titer” value is listed as “decreased”. Besides, the “Effect on monoclonal antibody titer” value in the test with CHO.DXB11 derived clone (process strategies 1 and 2, mAb3, listed as Sodium chloride) is “reduced”.

Take `CCCCCCCCCCCCCCCCCC(=O)O` [stearic acid]: the “Effect on acidic charge variants” value in the test with cell line producing mAb4 is on record as “decreased”. Also, in the test with CHO.DXB11 cells [1], the “Effect on G0 glycan species” value is “Decreased”, the “Effect on basic charge variants” value was “decreased” and the “Effect on low molecular weight species” value was “decreased”.

As for `Cc1ccc(C(C)C)c(O)c1` [thymol], in the test with cell line producing mAb4, the “Effect on LMW species” value is reported as “decreased”, the “Effect on acidic charge variants” value is “decreased”, the “Effect on relative percentage of HMW species” value is “decreased” and the “Effect on relative percentage of Man5 glycan species” value is on record as “decreased”. Also, the “Effect on relative percentage of basic charge variants” value with cell line producing mAb4 is reported as “decreased”. In the test on CHO.DXB11 cells [1], the “Effect on G0 glycan species” value is “Decreased”, the “Effect on acidic charge variants” value was “decreased”, the “Effect on low molecular weight species” value is “decreased” and the Effect on titer result was “increased”.

For cholesteryl acetate, in the test on cell line producing mAb4, the “Effect on LMW species” value is on record as “decreased”, the “Effect on acidic charge variants” value was “decreased”, the “Effect on relative percentage of G0 glycan species” value is recorded as “decreased” and the “Effect on relative percentage of HMW species” value is recorded as “decreased”. In the test on cell line producing mAb4, the “Effect on relative percentage of Man5 glycan species” value is “decreased” and the “Effect on relative percentage of basic charge variants” value is on record as “decreased”. Also, in the test on CHO.DXB11 cells [1], the “Effect on G0F glycan species” value is “decreased”, the “Effect on G0 glycan species” value is given as “Decreased” and the “Effect on Man5 glycan species” value is listed as “Decreased”.
